The nature of one series: Thermal stability (DSC). Conditions: for Tpeak of desolvation event (first endothermic peak maximum, DSC): DSC 20 to 235° C., dry nitrogen purge, event = loss of EtOH, H2O or lactic acid; for Tpeak of desolvation event (first endothermic peak maximum, DSC) / Onset temperature of decomposition peak (DSC) / Peak maximum temperature of decomposition peak (DSC): heating rate 20 K/min; for Stability against temperature stress compared to levothyroxine sodium pentahydrate (DSC conclusion): DSC analysis; for Onset temperature of decomposition peak (DSC) / Peak maximum temperature of decomposition peak (DSC): co-crystal: second endotherm, concomitant melting and decomposition, sodium pentahydrate: exotherm. In kind it is physicochemical. On the procedure:
Each sample (approximately 4±0.0005 mg using a UM3 ultramicrobalance, Mettler, Greifensee, CH) was weighed into an aluminum pan (25 microlitre) and sealed with a cover, which was perforated by a needle. Dry nitrogen was used as the purge gas (purge rate: 20 mL/min). The samples were heated from 20 to 235° C. at a heating rate of 20 K/min.
Background: Differential scanning calorimetry records heat flow against a reference as temperature is scanned.

A short description of another series: Thermal stability (TGA). It is filed as physicochemical. Conditions: for Temperature range of desolvation event (TGA): TGA 20 to 235° C., 10 K/min, nitrogen purge, event = loss of EtOH, H2O or lactic acid. On the procedure:
Each sample (approximately 4±0.0005 mg using a UM3 ultramicrobalance, Mettler, Greifensee, CH) was weighed into an unsealed platinum sample holder (50 microlitre). The samples were heated from 20 to 235° C. at a rate of 10 K/min. Nitrogen (sample purge rate 20 mL/min and balance purge rate 40 mL/min)) was used as purge gas.

The conditions of series [1]: Hamad et al., Pharm Dev Technol 2015; 20(3): 314-319; cited from earlier work.
Series [2] is described as follows: Chemical stability: exposure to ambient air at 40° C. and 0% RH, followed by 1H-NMR.
Description: A ^1H-NMR spectrum of each substance was recorded at the beginning of the test period, at 3 weeks and finally at 6 weeks. Spectra were recorded on a Bruker Avance-300 Spectrometer (Spectrometer frequency: 300 MHz). Each sample for analysis was prepared by dissolving about 20 mg of solid in 600 microlitres of d6-DMSO. All samples were analysed immediately after preparation.
The mark [3] stands for this setting: listed as L-tartaric acid co-crystal.
[4] abbreviates: TGA 10 K/min, up to about 120° C.
Where [5] appears, read: listed as L-tartaric acid L-lactic acid co-crystal.

On to `N[C@@H](Cc1cc(I)c(Oc2cc(I)c(O)c(I)c2)c(I)c1)C(=O)O` [levothyroxine L-tartaric acid co-crystal], for which, in the series “Thermal stability (DSC)”, the “Tpeak of desolvation event (first endothermic peak maximum, DSC)” value (from here on “Tpeak of desolvation event”) is “about 165 °C”; the “Stability against temperature stress compared to levothyroxine sodium pentahydrate (DSC conclusion)” value is listed as “more stable against temperature stress”; the “Onset temperature of decomposition peak (DSC)” value is “about 180 °C”; the “Peak maximum temperature of decomposition peak (DSC)” value is “about 197 °C”. Also, the “Tpeak of desolvation event” value in the series “Thermal stability (DSC)” (setting [3]) was 165 °C. The “Mass loss up to about 120° C. (TGA), in words” value in the series “Thermal stability (TGA)” (setting [4]) is given as “only a slight mass loss”. In addition, in the series “Thermal stability (TGA)”, the “Temperature range of desolvation event (TGA)” value (shortened to “Temperature range”) is 150 to 170 °C. In addition, in the series “Thermal stability (TGA)” (setting [3]), the “Temperature range” value was ~150-170 °C.

As to `N[C@@H](Cc1cc(I)c(Oc2cc(I)c(O)c(I)c2)c(I)c1)C(=O)[O-].[Na+]` [levothyroxine sodium pentahydrate, Levothyroxine sodium pentahydrate, reference compound], in “Thermal stability (DSC)”, the “Onset temperature of decomposition peak (DSC)” value was “about 202 °C” and the “Peak maximum temperature of decomposition peak (DSC)” value was “about 205 °C”. For the same compound, the “Mass loss up to about 120° C. (TGA), in words” value in the series “Thermal stability (TGA)” (setting [4]) was “significant weight loss”. Also, in the series “Thermal stability (TGA)”, the “Temperature range” value was ~30-120 °C. Besides, the “Chemical degradation on exposure to dry conditions in the presence of molecular oxygen” value in series [1] was “significant degradation”. Further, the “Chemical stability under the applied stress conditions (1H-NMR)” value in series [2] (ambient air (oxygen about 20.9 volume %), 6 weeks, spectra at start, 3 and 6 weeks) is given as “chemically unstable”. In series [2] (ambient air, 3 weeks), the “1H-NMR spectrum change after 3 weeks” value is “additional peaks become evident”. Further, the “1H-NMR spectrum change after 6 weeks” value in series [2] (ambient air, 6 weeks) was “become even more intense”.

As for `N[C@@H](Cc1cc(I)c(Oc2cc(I)c(O)c(I)c2)c(I)c1)C(=O)O` [levothyroxine L-tartaric acid L-lactic acid co-crystal], the results for the “Tpeak of desolvation event” value in the series “Thermal stability (DSC)” and in the series “Thermal stability (DSC)” (setting [5]) were “about 162 °C” and 162 °C, respectively. Also, the “Stability against temperature stress compared to levothyroxine sodium pentahydrate (DSC conclusion)” value in “Thermal stability (DSC)” is given as “more stabe against temperature stress”. Moreover, in the series “Thermal stability (TGA)” (setting [4]), the “Mass loss up to about 120° C. (TGA)” value is “about 0.5 weight-%”. The “Temperature range” value in the series “Thermal stability (TGA)” is 150 to 170 °C; in “Thermal stability (TGA)” (setting [5]) it was ~150-170 °C.
